The results in this text go back to ChEMBL document CHEMBL3758124, “Synthesis and biological evaluation of new securinine analogues as potential anticancer agents” (Eur J Med Chem, 2016).

As usually defined, the IC50 is the concentration that gives 50% inhibition.

Data set [1] can be described thus: Cytotoxicity against human HCT116 cells assessed as growth inhibition at 1 uM after 72 hrs by ATPlite assay relative to control. It is filed as functional. Particulars: HCT-116, 72 h, read-out: GI. For orientation: In ATP-based viability assays light output follows the ATP content of the culture.
Data set [2] can be described thus: Cytotoxicity against human HCT116 cells assessed as growth inhibition at 10 uM after 72 hrs by ATPlite assay relative to control. It counts as functional. Particulars: HCT-116, 72 h, read-out: GI.
Data set [3] in a line: Cytotoxicity against human HCT116 cells assessed as growth inhibition at 20 uM after 72 hrs by ATPlite assay relative to control. It is filed as functional. To be noted: HCT-116, 72 h, read-out: GI.
Data set [4] has as its system A549. Nature of the data set: Cytotoxicity against human A549 cells assessed as growth inhibition after 72 hrs by ATPlite assay. It is filed as functional, cell-based. Particulars: A549, 72 h.
The test system of the next data set is A-375. Nature of the data set: Cytotoxicity against human A375 cells assessed as growth inhibition after 72 hrs by ATPlite assay. It is filed as functional, cell-based. To be noted: A-375, 72 h.
Data set [5] can be described thus: Cytotoxicity against human HL60 cells assessed as growth inhibition after 72 hrs by ATPlite assay. It is filed as functional, cell-based. To be noted: HL-60, 72 h.
The nature of data set [6]: Cytotoxicity against human HCT116 cells assessed as growth inhibition after 72 hrs by ATPlite assay. It is filed as functional, cell-based. Particulars: HCT-116, 72 h.
Data set [7] has as its system Plasma. The data set can be described thus: Stability in human plasma at 5 uM after 120 mins by LC-MS analysis. It is filed as ADME, cell-free. Particulars: 2 h.
Data set [8] has as its system Plasma. Nature of the data set: Stability in mouse plasma at 5 uM after 120 mins by LC-MS analysis. It is filed as ADME, cell-free. Particulars: 2 h.
Data set [9] has as its system Plasma. The data set can be described thus: Stability in rat plasma at 5 uM after 120 mins by LC-MS analysis. It is filed as ADME, cell-free. To be noted: 2 h.
Data set [10] deals with A549. Nature of the data set: Cytotoxicity against human A549 cells after 72 hrs by Coulter counter analysis. It is filed as functional, cell-based. Particulars: A549, 72 h.
The subject of another data set is MCF7. The data set can be described thus: Cytotoxicity against human MCF7 cells assessed as growth inhibition by CCK8 assay. It counts as functional, cell-based. (Tetrazolium assays rely on reduction of a dye to a coloured formazan, in cell work by metabolically active cells.)

Each structure is given as a SMILES string.

Take `CC(=O)c1cccc(C2=CC3=CC(=O)O[C@@]34C[C@@H]2N2CCCC[C@@H]24)c1`: in data set [1], the inhibition of growth at 1 µM was 3.6%. Further, the inhibition of growth at 10 µM in data set [2] stood at 35.3%. The inhibition of growth at 20 µM in [3] came to 65%.

Turning to `COC(=O)c1cccc(C2=CC3=CC(=O)O[C@@]34C[C@@H]2N2CCCC[C@@H]24)c1`, the inhibition of growth at 1 µM in data set [1] amounted to 4%. Moreover, the inhibition of growth at 10 µM in data set [2] was found to be 60.2%. In addition, in data set [3], the inhibition of growth at 20 µM came out at 82.8%.

As to `Cc1cccc(C2=CC3=CC(=O)O[C@@]34C[C@@H]2N2CCCC[C@@H]24)c1`, the inhibition of growth at 1 µM in [1] was 75.5%. Moreover, the half-inhibitory concentration (IC50) with A549 [4] is 140 nM; with A-375, 70 nM; in data set [5], 130 nM; in [6] it was 280 nM. For the same molecule, in data set [2], the inhibition of growth at 10 µM was determined as 93.3%. Moreover, the inhibition of growth at 20 µM in data set [3] is 92.5%.

Consider `Cc1ccc(C2=CC3=CC(=O)O[C@@]34C[C@@H]2N2CCCC[C@@H]24)cc1`, for which the inhibition of growth at 1 µM in data set [1] was determined as 3.4%. The inhibition of growth at 10 µM in [2] is 73%. The inhibition of growth at 20 µM in data set [3] amounted to 82.9%.

As for `O=C1C=C2C=C(c3cccc(C(F)(F)F)c3)[C@@H]3C[C@@]2(O1)[C@H]1CCCCN31`, in data set [1], the inhibition of growth at 1 µM was 21%. Moreover, the inhibition of growth at 10 µM in data set [2] turned out to be 81.9%. For the same molecule, the inhibition of growth at 20 µM in data set [3] is 83.1%.

Turning to `O=C1C=C2C=C(c3cccc(Cl)c3)[C@@H]3C[C@@]2(O1)[C@H]1CCCCN31`, the inhibition of growth at 1 µM in [1] stood at 76.6%. Further, the concentration for half-maximal inhibition (IC50) in the data set on A549 [4] came out at 110 nM; in the data set with A-375, 80 nM; in data set [5] it was 140 nM; in data set [6], 230 nM. In addition, the inhibition of growth at 10 µM in [2] worked out at 93.4%. The inhibition of growth at 20 µM in [3] was 93%.

With `O=C1C=C2C=C(c3ccc4c(c3)OCO4)[C@@H]3C[C@@]2(O1)[C@H]1CCCCN31`, in data set [1], the inhibition of growth at 1 µM was -1.7%. The inhibition of growth at 10 µM in [2] was determined as 86.9%. In addition, the inhibition of growth at 20 µM in data set [3] came to 90%.

As for `COc1cccc(C2=CC3=CC(=O)O[C@@]34C[C@@H]2N2CCCC[C@@H]24)c1`, in data set [1], the inhibition of growth at 1 µM came out at 76.3%. The IC50 amounted to 120 nM in the data set on A549 [4], 80 nM in the data set with A-375, 140 nM in [5] and 260 nM in data set [6]. The Stability result in the data set on Plasma [7], in the data set with Plasma [8] and in the data set on Plasma [9] was “Stable” throughout. Further, the inhibition of growth at 10 µM in data set [2] worked out at 92.7%. Moreover, the inhibition of growth at 20 µM in data set [3] came out at 92.8%.

Take `CC(=O)c1ccc(C2=CC3=CC(=O)O[C@@]34C[C@@H]2N2CCCC[C@@H]24)cc1`: the inhibition of growth at 1 µM in [1] was found to be 2.4%. Besides, the inhibition of growth at 10 µM in data set [2] turned out to be 11.7%. For the same molecule, the inhibition of growth at 20 µM in [3] came to 27.3%.

In the case of `O=C1C=C2C=C(c3ccc(Cl)c(Cl)c3)[C@@H]3C[C@@]2(O1)[C@H]1CCCCN31`, in data set [1], the inhibition of growth at 1 µM is 12.3%. Moreover, in data set [2], the inhibition of growth at 10 µM worked out at 61%. Moreover, in [3], the inhibition of growth at 20 µM turned out to be 80.5%.

For the molecule `COc1ccc(C2=CC3=CC(=O)O[C@@]34C[C@@H]2N2CCCC[C@@H]24)cc1`, the inhibition of growth at 1 µM in [1] worked out at 11.7%. In [2], the inhibition of growth at 10 µM was found to be 9.4%. Besides, in [3], the inhibition of growth at 20 µM turned out to be 24.8%.

On to `CN(C)c1ccc(C2=CC3=CC(=O)O[C@@]34C[C@@H]2N2CCCC[C@@H]24)cc1`, for which the inhibition of growth at 1 µM in data set [1] is 3.7%. Also, the inhibition of growth at 10 µM in [2] worked out at 21.5%. In addition, the inhibition of growth at 20 µM in [3] was 47.6%.

Take `CN(C)c1cccc(C2=CC3=CC(=O)O[C@@]34C[C@@H]2N2CCCC[C@@H]24)c1`: in data set [1], the inhibition of growth at 1 µM amounted to 10.2%. Besides, the inhibition of growth at 10 µM in data set [2] was 52.7%. Also, in data set [3], the inhibition of growth at 20 µM was determined as 75.7%.

Consider `O=C1C=C2C=C(c3ccccc3)[C@@H]3C[C@@]2(O1)[C@H]1CCCCN31`, for which, in data set [1], the inhibition of growth at 1 µM amounted to 6.8%. Besides, the inhibition of growth at 10 µM in data set [2] turned out to be 86.7%. Also, in data set [3], the inhibition of growth at 20 µM came to 87.4%.

Take `O=C1C=C2C=C(c3ccc4c(c3)Cc3ccccc3-4)[C@@H]3C[C@@]2(O1)[C@H]1CCCCN31`: the inhibition of growth at 1 µM in data set [1] is 20.9%. The inhibition of growth at 10 µM in [2] was 53.6%. Besides, the inhibition of growth at 20 µM in data set [3] worked out at 75.1%.

`O=C1C=C2C=C(c3ccc4ccccc4c3)[C@@H]3C[C@@]2(O1)[C@H]1CCCCN31`: in data set [1], the inhibition of growth at 1 µM stood at 10.8%. For the same molecule, in [2], the inhibition of growth at 10 µM stood at 30.9%. In addition, in data set [3], the inhibition of growth at 20 µM is 51.1%.

`O=C1C=C2C=C(c3cccc(F)c3)[C@@H]3C[C@@]2(O1)[C@H]1CCCCN31`: in [1], the inhibition of growth at 1 µM came out at 32.1%. The inhibition of growth at 10 µM in data set [2] was determined as 80.3%. Besides, the inhibition of growth at 20 µM in [3] stood at 84.1%.

For the molecule `COC(=O)c1ccc(C2=CC3=CC(=O)O[C@@]34C[C@@H]2N2CCCC[C@@H]24)cc1`, the inhibition of growth at 1 µM in [1] was 7.2%. Moreover, the inhibition of growth at 10 µM in data set [2] amounted to 8.3%. Moreover, the inhibition of growth at 20 µM in [3] was 24.4%.

For the molecule `O=C1C=C2C=C(c3ccc(F)cc3)[C@@H]3C[C@@]2(O1)[C@H]1CCCCN31`, in [1], the inhibition of growth at 1 µM is -2.6%. The inhibition of growth at 10 µM in data set [2] is 30.7%. In [3], the inhibition of growth at 20 µM is 52.5%.

`COc1cc([C@@H]2c3cc4c(cc3[C@@H](O[C@@H]3O[C@@H]5CO[C@@H](C)O[C@H]5[C@H](O)[C@H]3O)[C@H]3COC(=O)[C@H]23)OCO4)cc(OC)c1O` [ETOPOSIDE]: the IC50 is 590 nM in the data set on A549 [4], 240 nM with A-375, 860 nM in data set [5] and above 10000 nM in [6].

As to `O=C1C=C2C=C[C@@H]3C[C@@]2(O1)[C@H]1CCCCN31` [SECURININE], the IC50 is 25000 nM with A549 [10]; above 10000 nM in the data set with A549 [4]; 6100 nM in the data set with A-375; 25000 nM in the data set with MCF7; above 10000 nM in [5]; above 10000 nM in [6]. Also, the inhibition of growth at 1 µM in data set [1] came out at 7.6%. The Stability entry with Plasma [7], in the data set on Plasma [8] and with Plasma [9] was “Stable” throughout. The inhibition of growth at 10 µM in [2] came out at 50.6%. Further, in data set [3], the inhibition of growth at 20 µM is 90.7%.
